Several values for one entry are separate records, joined by “and”; a condition that tells them apart may be missing. Identical values can stand only once. Counter-ions that a name gives are not always drawn. Like-named read-outs stand apart in the source and are kept apart here.
What was measured:
HT1197 cells = assay: Cell-based assay, anti-proliferative activity, MELK-negative control (Cell Counting Kit-8, 72 hours); design: species or system human; conditions: Homo sapiens
Method: 100 micro-L of cell suspension was seeded onto 96-well microtiter plate (ViewPlate-96FTC, PerkinElmer). The initial cell concentration of 22Rv1, T47D, A549, DU4475, and HT1197 were 3,000 cells/well, 2,000 cells/well and 2,500 cells/well, respectively. Cellular growth was determined using Cell Counting Kit-8 (DOJINDO) at 72 hours after the exposure of the candidate inhibitors. […] Accurate IC50 values were calculated as described previously.

PC-14 xenografts = assay: Xenograft model antitumor assay (MELK-negative); format: in vivo, mice; conditions: PC-14 (MELK hardly detectable), 10 mg/kg oral once a day, 14 days
22Rv1 cells = assay: Cell-based assay, anti-proliferative activity (Cell Counting Kit-8, 72 hours); design: species or system human; conditions: Homo sapiens
In short: (§1)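 Cells seeded at 2,000–3,000 cells/well and exposed to candidate MELK inhibitors for 72 hours; growth measured with Cell Counting Kit-8. IC50 values calculated from the growth read-out.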

A549 cells = assay: as above; design: species or system human; conditions: Homo sapiens
In short: as §1

DU4475 cells = assay: as above; design: species or system human; conditions: Homo sapiens
In short: as §1

T47D cells = assay: as above; design: species or system human; conditions: Homo sapiens, T47D
In short: as §1

MIAPaCa-2 xenografts = assay: Xenograft model antitumor assay; design: species or system mice; conditions: mouse, in vivo
DU145 xenografts = assay: Xenograft model antitumor assay; design: species or system mice; conditions: mouse, in vivo
MDA-MB-231 xenografts = assay: Xenograft model antitumor assay; design: species or system mice; conditions: mouse, in vivo; dihydrochloride
MELK = MELK (Homo sapiens, UniProt Q14680); assay: Kinase assay (IMAP fluorescence polarization, FITC-labeled histone H3 peptide); format: biochemical; conditions: 50 micro-M ATP
In short: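 Kinase (0.8 ng/μL) reacted with 100 nM FITC-histone H3 peptide and 50 μM ATP in 20 mM HEPES, 0.3 mM MgCl2, 2 mM DTT, 0.01% Tween-20, pH 7.4, for 1 hour at room temperature. Phosphorylation read by IMAP fluorescence polarization after adding binding solution; IC50 from four-parameter fit.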

[1] = HT1197, 72 h, read-out: IC50 (μM) (HTll97)
[2] = 22Rv1, 72 h, read-out: IC50 (μM) (22Rvl)
[3] = A549, 72 h, read-out: IC50 (μM) (A549)
[4] = DU-4475, 72 h, read-out: IC50 (μM) (DU4475)
[5] = 72 h, read-out: IC50 (μM) (T47D)

Sequence of MELK (Q14680 whole entry, looked up): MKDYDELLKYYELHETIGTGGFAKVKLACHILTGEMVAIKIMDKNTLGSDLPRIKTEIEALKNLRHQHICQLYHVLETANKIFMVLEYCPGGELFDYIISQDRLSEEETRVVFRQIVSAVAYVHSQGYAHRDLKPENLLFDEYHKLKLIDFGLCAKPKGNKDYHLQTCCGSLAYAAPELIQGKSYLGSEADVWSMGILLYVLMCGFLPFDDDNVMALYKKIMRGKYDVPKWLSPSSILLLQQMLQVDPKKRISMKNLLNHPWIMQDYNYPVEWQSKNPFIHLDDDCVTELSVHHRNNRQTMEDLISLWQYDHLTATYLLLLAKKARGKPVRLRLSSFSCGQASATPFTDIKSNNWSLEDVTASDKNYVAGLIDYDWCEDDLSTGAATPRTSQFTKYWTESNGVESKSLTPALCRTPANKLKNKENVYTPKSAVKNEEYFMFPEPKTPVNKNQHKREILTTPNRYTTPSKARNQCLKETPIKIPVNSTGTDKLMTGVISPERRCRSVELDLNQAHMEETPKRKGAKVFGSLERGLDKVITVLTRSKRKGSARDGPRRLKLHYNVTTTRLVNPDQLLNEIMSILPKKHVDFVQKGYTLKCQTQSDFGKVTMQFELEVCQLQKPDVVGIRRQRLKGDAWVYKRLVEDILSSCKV

Compound	IC50 (HT1197 cells; [1]) [µM]	IC50 (HT1197 cells; HT1197, read-out: IC50, in vitro anti-proliferative assay) [µM]	Tumor growth suppressive effect (PC-14 xenografts)	IC50 (22Rv1 cells; [2]) [µM]	IC50 (22Rv1 cells; 22Rv1, read-out: IC50, in vitro anti-proliferative assay) [µM]	IC50 (A549 cells; [3]) [µM]	IC50 (A549 cells; A549, read-out: IC50, in vitro anti-proliferative assay) [µM]	IC50 (DU4475 cells; [4]) [µM]	IC50 (DU4475 cells; DU-4475, read-out: IC50, in vitro anti-proliferative assay) [µM]	IC50 (T47D cells; [5]) [µM]	IC50 (T47D cells; read-out: IC50, in vitro anti-proliferative assay) [µM]	Tumor growth inhibition (TGI) (MIAPaCa-2 xenografts) [%]	Tumor growth inhibition (TGI) (DU145 xenografts) [%]	Tumor growth inhibition (TGI) (MDA-MB-231 xenografts)	IC50 (MELK) [µM]
CC(=O)c1cnc2ccc(-c3cc(Cl)c(O)c(Cl)c3)nc2c1N[C@H]1CC[C@H](CN(C)C)CC1 [Example 6, 1-{6-(3,5-Dichloro-4-hydroxyphenyl)-4-({trans-4-[(dimethylamino)methyl]cyclohexyl}amino)-1,5-naphthyridin-3-yl}ethanone dihydrochloride]	0.12	0.097	no tumor growth suppressive effect	0.0052	0.006	0.0089	0.0067	0.0033	0.0023	0.0053	0.0043	87	106	73% and 72%	
CC(=O)c1cnc2ccc(-c3cc(Cl)c(O)c(Cl)c3)nc2c1N1CCC(CCN2CCCC2)CC1 [Example 36, 1-[6-(3,5-Dichloro-4-hydroxyphenyl)-4-{4-[2-(pyrrolidin-1-yl)ethyl]piperidin-1-yl}-1,5-naphthyridin-3-yl]ethanone dihydrochloride]	4.7			0.36		0.63		0.22		0.21					0.0021
CC(=O)c1cnc2ccc(-c3cc(Cl)c(O)c(Cl)c3)nc2c1N[C@H]1CC[C@H](NC(=O)C(N)C(C)C)CC1 (stereo partly drawn) [Example 79, N-{trans-4-[3-Acetyl-6-(3,5-dichloro-4-hydroxyphenyl)-1,5-naphthyridin-4-ylamino]-cyclohexyl}-2-amino-3-methylbutanamide dihydrochloride]	3.9			0.038		0.11		0.016		0.018					0.0016
COc1cc(-c2ccc3ncc(S(C)(=O)=O)c(N[C@H]4CC[C@H](CN(C)C)CC4)c3n2)cc(Cl)c1O [Example 14, 6-(3-Chloro-4-hydroxy-5-methoxyphenyl)-4-{trans-4-[(dimethylamino)methyl]-cyclohexylamino}-3-methylsulfonyl-1,5-naphthyridine-dihydrochloride]	0.14			0.05		0.033		0.0096		0.027					0.0009
CC(=O)c1cnc2ccc(-c3cc(Cl)c(O)c(Cl)c3)nc2c1Nc1ccc(N2CCC(N(C)C)C2)nc1 (centres unmarked) [Example 51, 1-[6-(3,5-Dichloro-4-hydroxyphenyl)-4-{6-[3-(dimethylamino)pyrrolidin-1-yl]pyridin-3-ylamino}-1,5-naphthyridin-3-yl]ethanone trihydrochloride]	2.8			0.36		0.32		0.32		0.19					0.0082
CC(=O)c1cnc2ccc(N3CCCC3)nc2c1N[C@H]1CC[C@H](CN2CCCC2)CC1 [Example 78, 1-{6-(Pyrrolidin-1-yl)-4-[trans-4-(pyrrolidin-1-ylmethyl)cyclohexylamino]-1,5-naphthyridin-3-yl}ethanone]	9.8			5.6		6.8		7.7		5.4					2
CC(=O)c1cnc2ccc(-c3cc(F)c(O)c(Cl)c3)nc2c1N1CCC(CCN2CCCC2)CC1 [Example 37, 1-[6-(3-Chloro-5-fluoro-4-hydroxyphenyl)-4-{4-[2-(pyrrolidin-1-yl)ethyl]piperidin-1-yl}-1,5-naphthyridin-3-yl]ethanone dihydrochloride]	7.2			0.49		1.2		0.42		0.25					0.01

Source: patent US9067937B2 (priority 2012, dated 2015)
